These results are taken from US20130202653A1, “3-ARYL-3-HYDROXY-2-AMINO-PROPIONIC ACID AMIDES, 3-HETEROARYL-3-HYDROXY-2-AMINOPROPIONIC ACID AMIDES AND RELATED COMPOUNDS HAVING ANALGESIC AND/OR IMMUNO STIMULANT ACTIVITY” (Allergan, Inc., priority 2005, published 2013).

Each structure is given as a SMILES string. Structures can show the parent of a compound that is named as a salt.

One test has as its system tactile allodynia in the rat Chung model. As to the kind of experiment: Chung model: reversal of tactile allodynia (von Frey hairs) after spinal nerve ligation. The format is in vivo. The settings on record: 300 μg/kg IP, peak at 30 min post dose, hydrochloride. The text has this:
An art-accepted model or assay for measuring an analgesic effect of a compound in chronic pain (in particular peripheral neuropathy) is the model known as Kim and Chung 1992, Pain […], pp 355-363 (Chung model). This model involves the surgical ligation of the L5 (and optionally the L6) spinal nerves on one side in experimental animals. Rats recovering from the surgery gain weight and display a level of general activity similar to that of normal rats. However, these rats develop abnormalities of the foot, wherein the hindpaw is moderately everted and the toes are held together. More importantly, the hindpaw on the side affected by the surgery appears to become sensitive to low-threshold mechanical stimuli and will perceive pain instead of the faint sensation of touch. This sensitivity to normally non-painful touch, called “tactile allodynia”, develops within the first week after surgery and lasts for at least two months. The allodynia response includes lifting the affected hindpaw to escape from the stimulus, licking the paw and holding it in the air for many seconds. None of these responses is normally seen in the control group.
To produce the tactile allodynia, rats are anesthetized before surgery. The surgical site is shaved and prepared either with betadine or Novacaine. Incision is made from the thoracic vertebra X111 down toward the sacrum. Muscle tissue is separated from the spinal vertebra (left side) at the L4-S2 levels. The L6 vertebra is located and the transverse process is carefully removed with a small rongeur to expose the L4-L6 spinal nerves. The L5 and L6 spinal nerves are isolated and tightly ligated with 6-0 silk thread. The same procedure is done on the right side as a control, except no ligation of the spinal nerves is performed.
After a complete hemostasis is confirmed, the wounds are sutured. A small amount of antibiotic ointment is applied to the incised area, and the rat is transferred to the recovery plastic cage under a regulated heat-temperature lamp.
On the day of the experiment, at least seven days after the surgery, typically six rats per test group are administered the test drugs by intraperitoneal (i.p.) injection or oral gavage (p.o.). For i.p. administration, the compounds are formulated in H2O and given in a volume of 1 ml/kg body weight by injecting into the intraperitoneal cavity. For p.o. administration, the compounds are formulated in H2O and given in a volume of 1 ml/kg body weight using an 18-gauge, 3 inch gavage needle that is slowly inserted through the esophagus into the stomach.
Tactile allodynia is assessed via von Frey hairs, which are a series of fine hairs with incremental differences in stiffness. Rats are placed in a plastic cage with a wire mesh bottom and allowed to acclimate for approximately 30 minutes. To establish the pre-drug baseline, the von Frey hairs are applied perpendicularly through the mesh to the mid-plantar region of the rats' hindpaw with sufficient force to cause slight buckling and held for 6-8 seconds. The applied force has been calculated to range from 0.41 to 15.1 grams. If the paw is sharply withdrawn, it is considered a positive response. A normal animal will not respond to stimuli in this range, but a surgically ligated paw will be withdrawn in response to a 1-2 gram hair. The 50% paw withdrawal threshold is determined using the method of Dixon, W. J., Ann. Rev. Pharmacol. Toxicol. 20:441-462 (1980) hereby incorporated by reference. Tactile allodynia is measured prior to and 15, 30, and 60 minutes after drug administration. The post-drug threshold is compared to the pre-drug threshold and the percent reversal of tactile sensitivity is calculated based on a normal threshold of 15.1 grams.
Table 1 below indicates the degree of pain reversal obtained in the Chung model with exemplary compounds of the invention. […]
Take `NC(C(=O)N1CCCC1)C(O)c1ccsc1` (single isomer, unassigned; (-)) [Compound 206, (−)-threo-2-Amino-3-hydroxy-1-(pyrrolidin-1-yl)-3-(thiophen-3-yl)propan-1-one hydrochloride]: the “Peak % Pain reversal: time post dose” value came out at 67% 30 min.

The same test, now with this note: 300 μg/kg IP, peak at 60 min post dose.
Turning to `Cl.Cl.N[C@H](C(=O)N1CC[C@H](F)C1)[C@H](O)c1ccsc1` [Compound 256, (2S,3R)- & (2R,3S)-2-Amino-1-((S)-3-fluoropyrrolidin-1-yl)-3-hydroxy-3-(thiophen-3-yl)propan-1-one dihydrochlorides], the “Peak % Pain reversal: time post dose” value is recorded as 62% 60 min. On the same count and under the same terms, the same measure for `Cl.Cl.N[C@H](C(=O)N1CC[C@@H](O)C1)[C@H](O)c1ccncc1` [Compound 247, (2S,3R)- & (2R,3S)-2-Amino-1-((R)-3-hydroxypyrrolidin-1-yl)-3-hydroxy-3-(pyridin-4-yl)propan-1-one dihydrochlorides]: 42% 60 min.

The same test, now with this note: Rattus norvegicus, ip, 0.5 h, 300 μg/kg IP, peak at 30 min post dose, read-out: Peak % Pain reversal: time post dose.
`O=C([C@H](NCc1cccc(I)c1)[C@@H](O)c1ccncc1)N1CCCC1` (racemic) [Compound 227, (±)-threo-2-(3-iodobenzylamino)-3-hydroxy-3-(pyridin-4-yl)-1-(pyrrolidin-1-yl)-propan-1-one dihydrochloride]: the inhibition in vivo at 0.3 mg/kg was 95%.

Take `C[C@@](O)(c1ccncc1)[C@@H](N)C(=O)N1CCCC1` (racemic) [Compound 239, (±)-erythro-2-Amino-3-hydroxy-3-(pyridin-4-yl)-1-(pyrrolidin-1-yl)butan-1-one dihydrochloride]: the inhibition in vivo at 0.3 mg/kg amounted to 75%. On the same count and under the same terms, the same measure for `NC(C(=O)N1CCCC1)C(O)c1ccsc1` (single isomer, unassigned; (+)) [Compound 205, (+)-threo-2-Amino-3-hydroxy-1-(pyrrolidin-1-yl)-3-(thiophen-3-yl)propan-1-one hydrochloride]: 62%; for `CCCCCCCN[C@@H](C(=O)N1CCCC1)[C@@H](O)c1ccncc1` (racemic) [Compound 64, DL-threo-3-Hydroxy-2-(heptylamino)-3-(pyridin-4-yl)-1-(pyrrolidin-1-yl)propan-1-one dihydrochloride]: 100%. Still for that read-out and setting: the same measure for `O=C([C@H](NC1CCCCC1)[C@@H](O)c1ccncc1)N1CCCC1` (racemic) [Compound 69]: 63%; for `O=C(N[C@@H](C(=O)N1CCCC1)[C@@H](O)c1ccncc1)c1ccc(Cl)c(Cl)c1` (racemic) [Compound 57, 3,4-Dichloro-N-(DL-threo-1-Hydroxy-3-oxo-1-(pyridin-4-yl)-3-(pyrrolidin-1-yl)propan-2-yl)benzamide]: 51%. The same measure, in the same setting: the same measure for `N[C@@H](C(=O)N1CCC(F)(F)C1)[C@@H](O)c1ccncc1` (racemic) [Compound 213, (±)-threo-2-Amino-1-(3,3-difluoropyrrolidin-1-yl)-3-hydroxy-3-(pyridin-4-yl)propan-1-one dihydrochloride]: 85%.

Staying with this test, now noted: Rattus norvegicus, ip, 1 h, 30 μg/kg IP, peak at 60 min post dose, read-out: Peak % Pain reversal: time post dose.
With `NC(C(=O)N1CC[C@H](F)C1)C(O)c1ccncc1` (single isomer, unassigned; (-)) [Compound 248, dihydrochloride], the inhibition in vivo at 0.03 mg/kg worked out at 59%.

Still in this test, the particulars now being: Rattus norvegicus, ip, 1 h, 300 μg/kg IP, peak at 60 min post dose, read-out: Peak % Pain reversal: time post dose.
With `CC(C)(C)OC(=O)N[C@@H](C(=O)N1CCCC1)[C@@H](O)c1ccncc1` (racemic) [Compound 218, tert-butyl(±)-threo-1-hydroxy-3-oxo-1-(pyridin-4-yl)-3-(pyrrolidin-1-yl)propan-2-ylcarbamate hydrochloride], the inhibition in vivo at 0.3 mg/kg was found to be 32%. For the molecule `NC(C(=O)N1CCCC1)C(O)c1cccnc1` (single isomer, unassigned; (-)) [Compound 207, (−)-threo-2-Amino-3-hydroxy-3-(pyridin-3-yl)-1-(pyrrolidin-1-yl)propan-1-one dihydrochloride], the inhibition in vivo at 0.3 mg/kg worked out at 96%. Still for that read-out and setting: the result for `CCCCCCCCCC(=O)N[C@@H](C(=O)N1CCCC1)[C@@H](O)c1ccncc1` (racemic) [Compound 59, N-(DL-threo-3-hydroxy-1-oxo-3-(pyridin-4-yl)-1-(pyrrolidin-1-yl)propan-2-yl)decanamide hydrochloride] reads 92%; that for `O=C([C@H](NCc1ccccc1I)[C@@H](O)c1ccncc1)N1CCCC1` (racemic) [Compound 226, (±)-threo-2-(2-iodobenzylamino)-3-hydroxy-3-(pyridin-4-yl)-1-(pyrrolidin-1-yl)-propan-1-one dihydrochloride], 95%. Still for that read-out and setting: the same measure for `N[C@H](C(=O)N1CCCC1)[C@H](O)c1ccncc1` [Compound 204, (+)-(2S,3R)-2-Amino-3-hydroxy-3-(pyridin-4-yl)-1-(pyrrolidin-1-yl)propan-1-one dihydrochloride]: 50%; for `CN[C@@H](C(=O)N1CCCC1)[C@@H](O)c1ccncc1` (racemic) [Compound 61, DL-threo-3-Hydroxy-2-(methylamino)-3-(pyridin-4-yl)-1-(pyrrolidin-1-yl)propan-1-one dihydrochloride]: 64%. As for `O=C([C@@H](NCc1cccc(I)c1)[C@H](O)c1ccncc1)N1CCCC1` [Compound 228, (+)-(2S,3R)-2-(3-iodobenzylamino)-3-hydroxy-3-(pyridin-4-yl)-1-(pyrrolidin-1-yl)-propan-1-one dihydrochloride], the inhibition in vivo at 0.3 mg/kg amounted to 36%. The same measure, in the same setting: the result for `NC(C(=O)N1CCCC1)C(=NO)c1ccncc1` (racemic) [Compound 224, (±)-2-Amino-3-(hydroxyimino)-3-(pyridin-4-yl)-1-(pyrrolidin-1-yl)propan-1-one dihydrochloride] reads 51%; that for `N[C@H](Cc1ccncc1)C(=O)N1CCCC1` [Compound 236, (R)-2-amino-3-(pyridin-4-yl)-1-(pyrrolidin-1-yl)propan-1-one dihydrochloride], 32%.

For the molecule `CCN(CC)C(=O)[C@H](N)[C@@H](O)c1ccncc1` (racemic) [Compound 40, DL-threo-2-Amino-N,N-diethyl-3-hydroxy-3-(pyridin-4-yl)propanamide dihydrochloride], the inhibition in vivo at 0.3 mg/kg turned out to be 47%.

For `N[C@H](C(=O)N1CCCC1)[C@@H](O)c1ccncc1` [Compound 221, (+)-(2S,3S)-2-amino-3-hydroxy-3-(pyridin-4-yl)-1-(pyrrolidin-1-yl)propan-1-one dihydrochloride], the inhibition in vivo at 0.3 mg/kg was found to be 87%.

With `N[C@@H](C(=O)N1CCCC1)[C@@H](O)c1ccc2ccccc2c1` (racemic) [Compound 28, DL-threo-2-Amino-3-hydroxy-3-(naphthalen-2-yl)-1-(pyrrolidin-1-yl)propan-1-one hydrochloride], the inhibition in vivo at 0.3 mg/kg was determined as 92%.

For the molecule `N[C@@H](C(=O)N1CCCC1)[C@@H](O)c1cccs1` (racemic) [Compound 24, DL-threo-2-Amino-3-hydroxy-1-(pyrrolidin-1-yl)-3-(thiophen-2-yl)propan-1-one hydrochloride], the inhibition in vivo at 0.3 mg/kg was determined as 60%. Turning to `N[C@@H](C(=O)N1CCCC1)[C@@H](O)c1csc2ccccc12` (racemic) [Compound 26, hydrochloride], the inhibition in vivo at 0.3 mg/kg came out at 92%.

Still in this test, the particulars now being: Rattus norvegicus, po, 1 h, 300 μg/kg PO, peak at 60 min post dose, read-out: Peak % Pain reversal: time post dose.
Turning to `O=C([C@H](NCc1ccc(Cl)c(Cl)c1)[C@@H](O)c1ccncc1)N1CCCC1` (racemic) [Compound 68, DL-threo-2-(3,4-Dichlorobenzylamino)-3-hydroxy-3-(pyridin-4-yl)-1-(pyrrolidin-1-yl)propan-1-one dihydrochloride], the inhibition in vivo at 0.3 mg/kg amounted to 94%.
